ChEMBL document CHEMBL4831503, “Design, synthesis, in vitro and in vivo anti-respiratory syncytial virus (RSV) activity of novel oxizine fused benzimidazole derivatives” (Eur J Med Chem, 2021)
pEC50: −log10 of the molar value. The source made the active and inactive calls. No cut-off for these calls is given here.

How the values were obtained:
[1] = Cytotoxicity against human HEp-2 cells assessed as reduction in cell viability measured after 60 hrs by MTT assay; type: cell-based
[2] = Selectivity index, ratio of CC50 for human HEp-2 cells to EC50 for Respiratory syncytial virus infected in human HEp-2 cells; type: toxicity, cell-based; details: read-out: Selectivity Index
[3] = test system: Respiratory syncytial virus; experiment: Antiviral activity against Respiratory syncytial virus infected in human HEp-2 cells incubated for 60 hrs by MTT assay; type: functional, organism-based; details: HEp-2, 60 h
[4] = Toxicity in BALB/c mouse infected with RSV-Long assessed as body weight loss at 50 mg/kg/day administered via gastric gavage once daily for 6 days; type: organism-based; details: in vivo, po, 144 h, time 6 day
[5] = test system: Respiratory syncytial virus; experiment: Inhibition of RSV induced apoptosis in human HEp-2 cells assessed as reduction in cleaved caspase-3 expression measured after 60 hrs by Western blot analysis; type: functional, organism-based
[6] = test system: Respiratory syncytial virus; experiment: Antiviral activity against RSV infected in BALB/c mouse assessed as downregulation of iNOS expression in lung tissue infected with RSV at 50 mg/kg/day measured after 2 to 6 days post infection by RT-PCR analysis; type: functional, organism-based; details: time 2-6 day
[7] = test system: Respiratory syncytial virus; experiment: Antiviral activity against RSV infected in BALB/c mouse assessed as downregulation of IL-6 expression in lung tissue infected with RSV at 50 mg/kg/day measured after 2 days post infection by RT-PCR analysis; type: functional, organism-based; details: time 2.0 day
[8] = test system: Respiratory syncytial virus; experiment: Antiviral activity against RSV infected in human HEp-2 cells assessed as downregulation of NF-kappaB expression at 25 uM treated 48 hpi and measured after 48 hrs by Western blot analysis; type: functional, organism-based
[9] = test system: Respiratory syncytial virus; experiment: Antiviral activity against RSV Long infected in BALB/c mouse assessed as improvement in lung congestion at 25 to 100 mg/kg/day observed on day 6 after infection by H and E staining based microscopic analysis; type: functional, organism-based; details: dose 25-100 mg/kg/day, time 6.0 day
[10] = test system: Respiratory syncytial virus; experiment: Antiviral activity against RSV Long infected in BALB/c mouse assessed as reduction in lung tissue damage by measuring lung index at 50 mg/kg/day measured after 4 to 6 days of virus infection; type: functional, organism-based; details: time 4-6 day
[11] = test system: Respiratory syncytial virus; experiment: Antiviral activity against RSV infected in BALB/c mouse assessed as downregulation of TLR3 expression in lung tissue infected with RSV at 50 mg/kg/day measured after 2 to 6 days post infection by RT-PCR analysis; type: functional, organism-based; details: time 2-6 day
[12] = test system: Respiratory syncytial virus; experiment: Inhibition of RSV induced apoptosis in human HEp-2 cells assessed as reduction in PARP cleavage measured after 48 hrs by Western blot analysis; type: functional, organism-based
[13] = test system: Respiratory syncytial virus; experiment: Antiviral activity against RSV infected in BALB/c mouse assessed as downregulation of IRF3 expression in lung tissue infected with RSV at 50 mg/kg/day measured after 2 to 4 days post infection by RT-PCR analysis; type: functional, organism-based; details: time 2-4 day
[14] = test system: Respiratory syncytial virus; experiment: Antiviral activity against RSV infected in BALB/c mouse assessed as downregulation of IL-8 expression in lung tissue infected with RSV at 50 mg/kg/day measured after 2 to 6 days post infection by RT-PCR analysis; type: functional, organism-based; details: time 2-6 day
[15] = test system: Respiratory syncytial virus; experiment: Inhibition of RSV induced apoptosis in human HEp-2 cells assessed as late apoptotic cells at 25 uM measured after 60 hrs by Annexin V-FITC/PI staining based flow cytometry analysis (reference value: 20.2%); type: functional; set-up: scale not given: the % may be the effect or the level left
[16] = test system: Respiratory syncytial virus; experiment: Antiviral activity against RSV infected in BALB/c mouse assessed as downregulation of IL-10 expression in lung tissue infected with RSV at 50 mg/kg/day measured after 2 to 6 days post infection by RT-PCR analysis; type: functional, organism-based; details: time 2-6 day
[17] = test system: Respiratory syncytial virus; experiment: Antiviral activity against RSV infected in human HEp-2 cells assessed as downregulation of RIG-1 expression at 25 uM treated 48 hpi and measured after 48 hrs by Western blot analysis; type: functional, organism-based
[18] = test system: Respiratory syncytial virus; experiment: Antiviral activity against RSV infected in BALB/c mouse assessed as downregulation of TNF-alpha expression in lung tissue infected with RSV at 50 mg/kg/day measured after 2 to 6 days post infection by RT-PCR analysis; type: functional, organism-based; details: time 2-6 day
[19] = test system: Respiratory syncytial virus; experiment: Antiviral activity against RSV infected in BALB/c mouse assessed as downregulation of RIG-1 expression in lung tissue infected with RSV at 50 mg/kg/day measured after 2 days post infection by RT-PCR analysis; type: functional, organism-based; details: time 2.0 day
[20] = Inhibition of RSV induced ROS production in human HEp-2 cells assessed as reduction in accumulation of ROS-positive cells at 25 uM measured after 36 hrs by DCHF-DA staining based flow cytometry analysis (reference value: 82.2%); type: functional, Respiratory syncytial virus; set-up: scale not given: the % may be the effect or the level left
[21] = test system: Respiratory syncytial virus; experiment: Inhibition of RSV induced apoptosis in human HEp-2 cells assessed as reduction in cleaved caspase-7 expression measured after 48 hrs by Western blot analysis; type: functional, organism-based
[22] = test system: Respiratory syncytial virus; experiment: Antiviral activity against RSV Long infected in BALB/c mouse assessed as inhibition of alveolar infiltrates accumulation at 50 mg/kg/day observed on day 6 after infection by H and E staining based microscopic analysis; type: functional, organism-based; details: time 6.0 day
[23] = test system: Respiratory syncytial virus; experiment: Antiviral activity against RSV infected in BALB/c mouse assessed as inhibition of viral replication by measuring RSV-M gene expression in lung after 2 to 6 days post infection by RT-PCR analysis; type: functional, organism-based; details: time 2-6 day
[24] = test system: Respiratory syncytial virus; experiment: Inhibition of RSV induced apoptosis in human HEp-2 cells assessed as early apoptotic cells at 25 uM measured after 60 hrs by Annexin V-FITC/PI staining based flow cytometry analysis (reference value: 10.3%); type: functional; set-up: scale not given: the % may be the effect or the level left
[25] = test system: Respiratory syncytial virus; experiment: Inhibition of RSV induced apoptosis in human HEp-2 cells assessed as reduction in cleaved caspase-9 expression measured after 48 hrs by Western blot analysis; type: functional, organism-based

COc1ccc2c(c1)nc1n2C[C@@H]([C@H](O)CO)OC1
CC50 at 60 h [1]: 366 µM

Cc1c(Br)cc2c(nc3n2[C@H]2OC[C@H](N=[N+]=[N-])[C@H]2OC3)c1Br
selectivity ratio [2]: 2.54 | pEC50 [3]: 4.88 | CC50 at 60 h [1]: 33.1 µM

NC(=O)c1ncn([C@@H]2O[C@H](CO)[C@@H](O)[C@H]2O)n1 [RIBAVIRIN]
Activity [4]: Toxic | selectivity ratio [2]: 22.6 | inhibition [5]: Active | Activity [6]: Active | Activity [7]: Active | Activity [8]: Active | Activity [9]: Active | Activity [10]: Active | Activity [11]: Active | inhibition [12]: Active | Activity [13]: Active | pEC50 [3]: 4.73 | Activity [14]: Active | Activity [15]: 7.6% | Activity [16]: Active | Activity [17]: Active | Activity [18]: Active | Activity [19]: inactive | Activity [20]: 62.7% | CC50 at 60 h [1]: 418 µM | inhibition [21]: Active | Activity [22]: Active | Activity [23]: Active | Activity [24]: 0.3% | inhibition [25]: Active

O[C@@H]1CO[C@H]2[C@@H]1OCc1nc3cc(Br)cc(Cl)c3n12
pEC50 [3]: 4.06 | CC50 at 60 h [1]: > 800 µM

COc1ccc2c(nc3n2[C@H]2OC[C@@H](O)[C@H]2OC3)c1N
selectivity ratio [2]: 9.66 | pEC50 [3]: 4.95 | CC50 at 60 h [1]: 109 µM

CS(=O)(=O)O[C@@H]1CO[C@H]2[C@@H]1OCc1nc3cc(Br)c(Br)cc3n12
selectivity ratio [2]: 1.13 | pEC50 [3]: 4.06 | CC50 at 60 h [1]: 99.5 µM

Cc1c(Br)cc2nc3n(c2c1Br)[C@H]1OC[C@@H](OCc2ccccc2)[C@H]1OC3
selectivity ratio [2]: 2.59 | pEC50 [3]: 4.35 | Activity [16]: Active | CC50 at 60 h [1]: 115 µM

O[C@@H]1CO[C@H]2[C@@H]1OCc1nc3cc(Cl)c(Cl)cc3n12
CC50 at 60 h [1]: 238 µM

[N-]=[N+]=N[C@H]1CO[C@H]2[C@@H]1OCc1nc3cc(Br)c(Br)cc3n12
CC50 at 60 h [1]: 77.4 µM

Cc1c(Br)cc2c(nc3n2[C@H]2OC[C@@H](O)[C@H]2OC3)c1Br
CC50 at 60 h [1]: 34.3 µM

O[C@@H]1CO[C@H]2[C@@H]1OCc1nc3cc(Br)c(Br)cc3n12
selectivity ratio [2]: 5.67 | pEC50 [3]: 4.50 | CC50 at 60 h [1]: 181 µM

Cc1ccc(S(=O)(=O)O[C@@H]2CO[C@H]3[C@@H]2OCc2nc4c(Br)c(C)c(Br)cc4n23)cc1
selectivity ratio [2]: 5.68 | pEC50 [3]: 5.80 | CC50 at 60 h [1]: 8.94 µM

COc1c(Br)cc2c(nc3n2[C@H]2OC[C@@H](O)[C@H]2OC3)c1Br
CC50 at 60 h [1]: 259 µM

Cc1c(Br)cc2c(nc3n2[C@H]2OC[C@@H](OCc4ccccc4)[C@H]2OC3)c1Br
CC50 at 60 h [1]: 25.6 µM

COc1c(Cl)cc2c(nc3n2[C@H]2OC[C@@H](O)[C@H]2OC3)c1Cl
CC50 at 60 h [1]: 411 µM

O[C@@H]1CO[C@H]2[C@@H]1OCc1nc3cc(F)c(F)cc3n12
pEC50 [3]: < 3.40 | CC50 at 60 h [1]: 512 µM

O[C@@H]1CO[C@H]2[C@@H]1OCc1nc3ccccc3n12
CC50 at 60 h [1]: 564 µM

Cc1cc2nc3n(c2cc1C)C[C@@H]([C@H](O)CO)OC3
CC50 at 60 h [1]: 574 µM

Cc1ccc(S(=O)(=O)O[C@@H]2CO[C@H]3[C@@H]2OCc2nc4cc(Br)c(C)c(Br)c4n23)cc1
selectivity ratio [2]: 10.7 | pEC50 [3]: 5.08 | CC50 at 60 h [1]: 88.6 µM

Cc1cc2nc3n(c2cc1C)[C@H]1OC[C@@H](O)[C@H]1OC3
CC50 at 60 h [1]: 492 µM

COc1ccc2c(nc3n2[C@H]2OC[C@@H](O)[C@H]2OC3)c1[N+](=O)[O-]
CC50 at 60 h [1]: 468 µM

COc1ccc2c(c1)nc1n2[C@H]2OC[C@@H](O)[C@H]2OC1
CC50 at 60 h [1]: > 800 µM

Cc1ccc(S(=O)(=O)O[C@@H]2CO[C@H]3[C@@H]2OCc2nc4cc(Br)c(Br)cc4n23)cc1
selectivity ratio [2]: 1.35 | pEC50 [3]: 4.19 | CC50 at 60 h [1]: 87.5 µM

OC[C@@H](O)[C@@H]1Cn2c(nc3ccccc32)CO1
CC50 at 60 h [1]: > 800 µM

Cc1c(Br)cc2nc3n(c2c1Br)[C@H]1OC[C@H](N=[N+]=[N-])[C@H]1OC3
CC50 at 60 h [1]: 21.4 µM

Cc1c(Br)cc2nc3n(c2c1Br)[C@H]1OC[C@@H](OS(C)(=O)=O)[C@H]1OC3
selectivity ratio [2]: 3.96 | pEC50 [3]: 5.22 | CC50 at 60 h [1]: 23.7 µM

OC[C@@H](O)[C@@H]1Cn2c(nc3cc(F)c(F)cc32)CO1
selectivity ratio [2]: 10 | pEC50 [3]: 4.19 | CC50 at 60 h [1]: 653 µM

Cc1c(Br)cc2c(nc3n2[C@H]2OC[C@@H](OS(C)(=O)=O)[C@H]2OC3)c1Br
CC50 at 60 h [1]: 15.6 µM
